These results are taken from PMC6792352, “Limited Chemical Structural Diversity Found to Modulate Thyroid Hormone Receptor in the Tox21 Chemical Library” (Environmental Health Perspectives, 2019).

Structures can show the parent of a compound that is named as a salt. Bounds are passed on as bounds.

The nature of the data set: in vitro. The conditions noted are these: rat, gh3-tre-luc cells.

Regarding `CCN(CC)CCOC(=O)[C@H](Cc1cccc2ccccc12)C[C@H]1CCCO1` [Nafronyl oxalate], for the setting “AC50 (uM) modified / 1000”, the CC50 (as a rule, the concentration giving 50% cytotoxicity) at 24 h was more than 20 µM.
Still for that read-out and setting: the value for `N=C(N)c1ccccc1` [Benzenecarboximidamide, monohydrochloride] was more than 90 µM; that for `CCCCCCCC/C=C\CCCCCCCC(=O)O` [Oleic acid] was more than 90 µM.
On the same count and under the same terms, next, `CCOCn1c(-c2ccc(Cl)cc2)c(C#N)c(Br)c1C(F)(F)F` [Chlorfenapyr]: 2.15 µM; `Cc1c(C(=O)NN2CCCCC2)nn(-c2ccc(Cl)cc2Cl)c1-c1ccc(Cl)cc1` [Rimonabant]: 13.9 µM.
On to `CCOC(=O)C1=NN(c2ccccc2)C(=O)C1` [Ethyl 5-oxo-1-phenyl-4,5-dihydro-1H-pyrazole-3-carboxylate], for which the CC50 at 24 h (AC50 (uM) modified / 1000) is more than 90 µM.
Molecule `Cn1cc([S+](C)[O-])c(=O)c2ccc(F)cc21` (stereo not drawn) [Flosequinan] gave a CC50 at 24 h (AC50 (uM) modified / 1000) of more than 50 µM.
Consider `CC(O)COC(C)(C)C` (stereo not drawn) [1-tert-Butoxy-2-propanol], for which the CC50 at 24 h (AC50 (uM) modified / 1000) was more than 90 µM.
As to `CCCCCCCCCCCCC` [Tridecane], the CC50 at 24 h (AC50 (uM) modified / 1000) was more than 90 µM.
On the same count and under the same terms, next, `Cc1cc(C(=O)O)ccc1[N+](=O)[O-]` [3-Methyl-4-nitrobenzoic acid]: more than 90 µM; `Nc1nc(O)c2ncn(COC(CO)CO)c2n1` [Ganciclovir]: more than 20 µM; `COCCCOc1cc(C[C@@H](C[C@H](N)[C@@H](O)C[C@H](C(=O)NCC(C)(C)C(N)=O)C(C)C)C(C)C)ccc1OC` [Aliskiren hydrochloride]: more than 50 µM.
Under “AC50 (uM) modified / 1000”, `COc1ccc(C[C@H](N)C(=O)N[C@H]2[C@@H](O)[C@H](n3cnc4c(N(C)C)ncnc43)O[C@@H]2CO)cc1` [Puromycin dihydrochloride] gave a CC50 at 24 h of 11.2 µM.
On the same count and under the same terms, next, `CN(C)C(=O)Nc1ccc(Cl)c(Cl)c1` [Diuron]: more than 90 µM; `CCC(C)N(C)C(=O)c1cc2ccccc2c(-c2ccccc2Cl)n1` (stereo not drawn) [PK 11195]: 48.6 µM.
In the case of `CCCN(CCC)N=O` [N-Nitrosodipropylamine], the CC50 at 24 h (AC50 (uM) modified / 1000, Tox21_110001=Tox21_201860, viability, 1 nM T3 present, 24 h) was more than 90 µM.
Turning to `CCCCCCCCn1sc(Cl)c(Cl)c1=O` [4,5-Dichloro-2-octyl-3(2H)-isothiazolone], where the note is “AC50 (uM) modified / 1000”, the midpoint of cytotoxicity, the CC50 at 24 h, lay at 12.7 µM.
Same read-out and setting: the value for `CC(C)(c1ccccc1)c1ccccc1` [2,2-Diphenylpropane] was more than 90 µM; that for `O=Cc1cccc([N+](=O)[O-])c1` [3-Nitrobenzaldehyde] was more than 90 µM.
Under “AC50 (uM) modified / 1000”, `O=C(O)c1ccc(O)cc1` [4-Hydroxybenzoic acid] registered a CC50 at 24 h of more than 90 µM.
For the setting “AC50 (uM) modified / 1000”, `CN(C)CC/C=C1/c2ccccc2Sc2ccc(Cl)cc21` [Chlorprothixene] showed a CC50 at 24 h of 11 µM.
As for `CCOCCOCCO` [2-(2-Ethoxyethoxy)ethanol], the CC50 at 24 h (AC50 (uM) modified / 1000) was more than 90 µM.
`COc1ccc(C(O)(c2cncnc2)C2CC2)cc1` (stereo not drawn) [Ancymidol]: the CC50 at 24 h (AC50 (uM) modified / 1000) was more than 90 µM.
For the molecule `C=CC=O` [Acrolein], the CC50 at 24 h (AC50 (uM) modified / 1000, Tox21_110001=Tox21_200984, viability, 1 nM T3 present, 24 h) is more than 90 µM.
With `Cc1cccc([N+](=O)[O-])c1C` [1,2-Dimethyl-3-nitrobenzene], the CC50 at 24 h (AC50 (uM) modified / 1000) is more than 90 µM.
In the case of `CCCCCCCCSC(=O)Oc1cc(Cl)nnc1-c1ccccc1` [Pyridate], the CC50 at 24 h (AC50 (uM) modified / 1000) is more than 90 µM.
Molecule `CC(C)=CCC/C(C)=C/C=O` [3,7-Dimethyl-2,6-octadienal] displayed a CC50 at 24 h (AC50 (uM) modified / 1000) of more than 90 µM.
The same measure, in the same setting: the value for `C=C[Si](C)(C=C)O[Si](C)(C)C` [Divinyltetramethyldisiloxane] was more than 90 µM.
As to `CCCCCCC(O)CCCCCCCCCCC(=O)OC` (stereo not drawn) [Methyl 12-hydroxyoctadecanoate], the CC50 at 24 h (AC50 (uM) modified / 1000) was more than 90 µM.
Still for that read-out and setting: the value for `CCc1ccc(C(=O)NN(C(=O)c2cc(C)cc(C)c2)C(C)(C)C)cc1` [Tebufenozide] was 2.75 µM; that for `CCCCCCCCCCCCCCCCCCOCCO` [Polyethylene glycol stearyl ether] was more than 20 µM.
Still for that read-out and setting: the value for `Cc1ccccc1Br` [2-Bromotoluene] was more than 90 µM; that for `NC[C@H]1O[C@H](O[C@H]2[C@H](O[C@@H]3O[C@H](CO)[C@@H](O)[C@H]3O)[C@@H](O)[C@H](N)C[C@@H]2N)[C@H](N)[C@@H](O)[C@@H]1O` [Ribostamycin sulfate] was more than 20 µM.
In the case of `Nc1nccs1` [2-Aminothiazole], the CC50 at 24 h (AC50 (uM) modified / 1000) was more than 90 µM.
The same measure, in the same setting: next, `CC(S)C(=O)NCC(=O)O` (stereo not drawn) [Tiopronin]: more than 50 µM; `CCCCCCCCCCCC[N+](C)(C)CCCCCCCCCCCC` [Didodecyldimethylammonium bromide]: 12.2 µM.
In the case of `CC(C)COC(=O)COc1cc(Cl)c(Cl)cc1Cl` [Isobutyl (2,4,5-trichlorophenoxy)acetate], the CC50 at 24 h (AC50 (uM) modified / 1000) was more than 90 µM.
The molecule `COCCOCCOCCOCCO` [2,5,8,11-Tetraoxatridecan-13-ol] had a CC50 at 24 h (AC50 (uM) modified / 1000) of more than 90 µM.
Turning to `NC(=O)N1c2ccccc2CC(=O)c2ccccc21` [Oxcarbazepine], the CC50 at 24 h (AC50 (uM) modified / 1000) was determined as 14.5 µM.
Where the note is “AC50 (uM) modified / 1000”, `CCCCC/C(=C\c1ccccc1)CO` [alpha-Amylcinnamyl alcohol] displayed a CC50 at 24 h of 46.6 µM.
Same read-out and setting: the value for `CN(C)C(=O)Nc1ccc(Cl)cc1` [Monuron] was more than 90 µM.
In turn, `CCOP(=S)(NC(C)C)Oc1ccccc1C(=O)OC(C)C` (stereo not drawn) [Isofenphos] returned a CC50 at 24 h (AC50 (uM) modified / 1000, Tox21_110001=Tox21_302219, viability, 1 nM T3 present, 24 h) of 78.7 µM.
With `CCOC(=O)NC(C)(C)Cc1ccc(Cl)cc1` [Cloforex], the CC50 at 24 h (AC50 (uM) modified / 1000, Tox21_110001=Tox21_113271, viability, 1 nM T3 present, 24 h) is more than 50 µM.
In the case of `Nc1cccc(N)n1` [2,6-Diaminopyridine], the CC50 at 24 h (AC50 (uM) modified / 1000) was more than 90 µM.
Consider `C#CC(C)(C)O` [2-Methyl-3-butyn-2-ol], for which the CC50 at 24 h (AC50 (uM) modified / 1000, Tox21_110001=Tox21_200094, viability, 1 nM T3 present, 24 h) is more than 90 µM.
Consider `CC(C)(C)c1cc([N+](=O)[O-])cc(C(C)(C)C)c1O` [2,6-Di-tert-butyl-4-nitrophenol], for which, under “AC50 (uM) modified / 1000, Tox21_110001=Tox21_301750, viability, 1 nM T3 present, 24 h”, half-maximal cytotoxicity (CC50 at 24 h) was put at 11 µM.
Molecule `CCOc1ccc2c(c1)C(C)CC(C)(C)N2` (stereo not drawn) yielded a CC50 at 24 h (AC50 (uM) modified / 1000) of more than 90 µM.
Same read-out and setting: next, `C1CCNCC1` [Piperidine]: more than 90 µM.
Take `CCCCCCCCCCCc1ccccc1` [1-Phenylundecane]: where the note is “AC50 (uM) modified / 1000”, the CC50 at 24 h is more than 90 µM.
The molecule `O=[N+]([O-])c1ccc(O/N=C/c2cc(Br)c(O)c(Br)c2)c([N+](=O)[O-])c1` [Bromofenoxim] yielded a CC50 at 24 h (AC50 (uM) modified / 1000) of 26 µM.
Still for that read-out and setting: the value for `CCOc1ccc(OCC)c(Cl)c1` [2-Chloro-1,4-diethoxybenzene] was more than 90 µM; that for `C/C=C/C=C/COC(=O)C(C)C` [2,4-Hexadienyl isobutyrate] was 75.5 µM.
In turn, `CCOC(=O)c1ccc(C#Cc2ccc3c(c2)C(C)(C)CCS3)nc1` [Tazarotene] gave a CC50 at 24 h (AC50 (uM) modified / 1000) of more than 50 µM.
In the case of `CC[Si](OC(C)=O)(OC(C)=O)OC(C)=O` [Ethyltriacetoxysilane], the CC50 at 24 h (AC50 (uM) modified / 1000) was more than 90 µM.
The same measure, in the same setting: next, `COc1ccc(CCNC[C@H](O)c2ccc(O)cc2)cc1OC` [Denopamine]: more than 50 µM; `CC(C)(C)NC[C@H](O)COc1nsnc1N1CCOCC1` [(S)-Timolol]: more than 50 µM.
The same measure, in the same setting: the value for `CC1(C)CC/C(=C\c2ccc(Cl)cc2)C1(O)Cn1cncn1` (stereo not drawn) [Triticonazole] was more than 90 µM; that for `C[n+]1ccn(Cc2ccccc2)c1` [1-Benzyl-3-methylimidazolium chloride] was more than 90 µM.
Still for that read-out and setting: next, `O=C1c2ccccc2S(=O)(=O)N1CCCCN1CCN(c2ncccn2)CC1` [Ipsapirone]: more than 50 µM; `CC/C(=N\OC/C=C/Cl)C1=C(O)CC(C2CCOCC2)CC1=O` (stereo not drawn) [Tepraloxydim]: more than 90 µM.
In the case of `CC[C@H](C)[C@H]1O[C@]2(C=C[C@@H]1C)C[C@@H]1C[C@@H](C/C=C(\C)[C@@H](O[C@H]3C[C@H](OC)[C@@H](O[C@H]4C[C@H](OC)[C@H](NC(C)=O)[C@H](C)O4)[C@H](C)O3)[C@@H](C)/C=C/C=C3\CO[C@@H]4[C@H](O)C(C)=C[C@@H](C(=O)O1)[C@]34O)O2` [Eprinomectin B1a], under “AC50 (uM) modified / 1000”, the CC50 at 24 h stood at 7.24 µM.
The same measure, in the same setting: next, `CC(S)C(C)S` (stereo not drawn) [2,3-Butanedithiol]: more than 100 µM.
As for `CCOC(=O)C(O)(c1ccc(Cl)cc1)c1ccc(Cl)cc1` [Chlorobenzilate], the CC50 at 24 h reads like this: (AC50 (uM) modified / 1000, Tox21_110001=Tox21_201753, viability, 1 nM T3 present, 24 h) 58.2 µM; (AC50 (uM) modified / 1000, Tox21_110001=Tox21_300594, viability, 1 nM T3 present, 24 h) 54.6 µM.
Where the note is “AC50 (uM) modified / 1000, Tox21_110001=Tox21_300792, viability, 1 nM T3 present, 24 h”, `COC(=O)Cc1ccccc1` [Methyl phenylacetate] came in with a CC50 at 24 h of more than 90 µM.
The molecule `CCOC(=O)C1OC1c1ccccc1` (stereo not drawn) [Ethyl 3-phenylglycidate] came in with a CC50 at 24 h (AC50 (uM) modified / 1000) of more than 90 µM.
As to `CCCCNC(=O)NS(=O)(=O)c1ccc(C)cc1` [Tolbutamide], the CC50 at 24 h (AC50 (uM) modified / 1000) is more than 90 µM.
`O=C(O)C1C(C(=O)O)[C@@]2(Cl)C(Cl)=C(Cl)[C@]1(Cl)C2(Cl)Cl` (stereo partly drawn) [Chlorendic acid]: the cytotoxic concentration (CC50) at 24 h (AC50 (uM) modified / 1000) is more than 90 µM.
`ClCC(Cl)Cl` [1,1,2-Trichloroethane]: the CC50 at 24 h (AC50 (uM) modified / 1000, Tox21_110001=Tox21_202465, viability, 1 nM T3 present, 24 h) is more than 90 µM.
For `CC(C)COC(=O)COc1ccc(Cl)cc1Cl` [2,4-D-isobutyl], under “AC50 (uM) modified / 1000”, the CC50 at 24 h is more than 90 µM.
Regarding `O=C(O)c1ccc(S(=O)(=O)O)cc1C(=O)O` [4-Sulfophthalic acid], the CC50 at 24 h (AC50 (uM) modified / 1000) was more than 90 µM.
Same read-out and setting: the value for `C=C(C)CN(CC)c1c([N+](=O)[O-])cc(C(F)(F)F)cc1[N+](=O)[O-]` [Ethalfluralin] was more than 90 µM.
